This is an account of results in US9145472B2, “Charge reversible polymers” (Wyoming Research Products Center, priority 2006, dated 2015).

Data set [1] is described as follows: pH-dependent hydrolysis of model amides monitored by 1H-NMR. Format: physicochemical. As for the experimental part: Model compound synthesis and hydrolytic kinetics measurement (Scheme 4—FIG. 4): Briefly, N,N-diethylamine (415 μL, 4 mmol) and 1,2-cis-cyclohexanedicarboxylic anhydride (617 mg, 4 mmol) were dissolved in 10 mL dichloride methane. The reaction was kept at room temperature for 2 h with stirring. The solvent was then removed by rotary evaporation to obtain the raw product. The raw product was purified by recrystallizing from benzene to get 2-[(diethylamino)carbonyl]cyclohexanecarboxylic acid. 1H NMR (400 MHz, CDCl3): δ (ppm): 3.60-3.22 (m), 2.77 (m), 2.51-2.45 (m), 1.87-1.66 (m), 1.58-1.46 (m), 1.49-1.39 (m), 1.28 (q), 1.17 (t). Similarly, 2-[(isopropylamino)carbonyl]cyclohexanecarboxylic acid was synthesized. 1H NMR (400 MHz, CDCl3): δ (ppm): 3.83 (q), 2.73 (q), 2.64 (q), 1.87 (m), 1.79 (m), 1.64 (m), 1.45 (m), 1.33 (m), 1.01 (d).
The hydrolysis of the model compounds was monitored by 1H-NMR. Briefly, 2-[(isopropylamino)carbonyl]cyclohexanecarboxylic acid (10 mg) was dissolved in 2 mL D2O. Sodium carbonate was used to adjust the solution pH to 5.0, 6.0 or 7.4 at 37° C. At predesigned time intervals, 1HNMR spectra of the solution were measured on a Bruker Avance DRX-400 spectrometer. The hydrolysis was monitored by measuring the integrations of the peaks at 3.77-3.9 ppm (CH in the amide of propan-2-amine) and the 3.3-3.5 ppm (CH in the propan-2-amine).
The hydrolysis of model amides of primary and secondary amines made from cis-1,2-cyclohexanedicarboxylic anhydride was tested at different pH values.

Another data set concerns nuclear DNA. The conditions noted are these: cited from earlier work.

Take `CC(C)NC(=O)C1CCCCC1C(=O)O` (stereo not shown) [amide of the primary amine, 2-[(isopropylamino)carbonyl]cyclohexanecarboxylic acid]: the “hydrolysis of the amide” value is “hydrolyzed more slowly” in data set [1] (pH 5, 37° C.); “hydrolyzed more slowly” in data set [1] (pH 6, 37° C.); “did not hydrolyze” in data set [1] (pH 7.4).
Take `CCN(CC)C(=O)C1CCCCC1C(=O)O` (stereo not shown) [amide of the secondary amine, 2-[(diethylamino)carbonyl]cyclohexanecarboxylic acid]: the “hydrolysis of the amide” value is listed as “almost instantly hydrolyzed” in data set [1] (pH 5, 37° C.) and “slightly slower” in data set [1] (pH 6, 37° C.). Further, the “extent of amide hydrolysis” value in data set [1] (pH 7.4, after 60 h) is 50%.
Regarding `N.N.[Cl][Pt][Cl]` [cisplatin], the “molecules that enter the cell that actually bind the nuclear DNA” value with nuclear DNA was “less than 1%”.
